The record followed here is ChEMBL document CHEMBL5506058, “Discovery of Quinazoline and Quinoline-Based Small Molecules as Utrophin Upregulators via AhR Antagonism for the Treatment of Duchenne Muscular Dystrophy” (J Med Chem, 2024).

Converted amounts (≈) assume the structure as drawn. The source made the active and inactive calls. No cut-off for these calls is given here.

Data set [1] concerns C2C12. Kind of data set: Cytotoxicity against mouse C2C12 cells assessed as reduction in cell viability at 0.78 to 100 uM measured after 24 hrs by MTT assay. It counts as toxicity, cell-based. The note with it: c2c12, 24 h, dose 0.78-100 µM. For orientation: Tetrazolium dyes change colour on reduction, which living cells bring about.
Data set [2] can be described thus: Upregulation of utrophin expression in mouse C2C12 cells assessed as fold increase at 800 nM measured after 72 hrs by In-cell ELISA method. The data set is classed as functional. For orientation: In an ELISA, binding on a coated surface is turned into a signal by an enzyme label.
Data set [3] relates to C2C12. The experiment in a line: Upregulation of utrophin mRNA expression in mouse C2C12 cells at 800 nM measured after 72 hrs by qRT-PCR analysis. It counts as functional, cell-based. (In general: In qPCR the cycle at which signal appears reflects the starting amount.)
In data set [4] the test system is C2C12. Kind of data set: Upregulation of utrophin mRNA expression in mouse C2C12 level measured after 72 hrs by qRT-PCR analysis. It counts as functional, cell-based. Conditions: dose 200-800 nM.
Data set [5] has as its system C2C12. Kind of data set: Upregulation of utrophin protein expression in mouse C2C12 level measured after 72 hrs by Westernblot analysis. The data set is classed as functional, cell-based. The note with it: dose 200-800 nM.
Data set [6] is described as follows: Upregulation of utrophin protein expression in mouse C2C12 cells assessed as fold increase at 800 nM measured after 72 hrs by Western blot analysis. The data set is classed as functional.
Data set [7] in a line: Upregulation of utrophin mRNA expression in mouse C2C12 cells assessed as fold increase at 800 nM measured after 72 hrs by qRT-PCR analysis. It counts as functional.
A short description of data set [8]: Upregulation of utrophin protein expression in human patient derived KM1328 cells assessed as fold increase at 800 nM measured after 72 hrs by Western blot analysis. The data set is classed as functional.
Data set [9] in a line: Binding affinity to recombinant AhR/ARNT (unknown origin) assessed as dissociation constant incubated for 30 mins by fluorescence quenching analysis. Details: species or system Homo sapiens.
The nature of data set [10]: Aqueous solubility of the compound in DMSO measured after 2 hrs by turbidity assay. The data set is classed as physicochemical.
Data set [11] can be described thus: Metabolic stability in rat liver microsomes assessed as intrinsic clearance at 5 uM preincubated for 5 mins followed by NADPH addition and measured upto 60 mins by LC-MS analysis. The data set is classed as ADME, Microsome. The note with it: time < 65 min, read-out: CLH.
Data set [12] is described as follows: Stability in human plasma assessed as remaining compound at 50 uM measured after 2 hrs by LC-MS and HPLC analysis. The data set is classed as ADME, cell-free. Conditions: read-out: Stability.
Data set [13] in a line: Stability in human serum assessed as remaining compound at 50 uM measured after 2 hrs by LC-MS and HPLC analysis. The note with it: read-out: Stability. The data set is classed as ADME, cell-free.
Data set [14] can be described thus: Lipophilicity, logD of the compound in cyclohexane/PBS at pH 7.4 measured after 1 hr by LC-MS and HPLC analysis. The note with it: pH 7.4, 1 h. It counts as physicochemical.
The nature of data set [15]: Lipophilicity, logD of the compound in octanol/PBS at pH 7.4 measured after 1 hr by LC-MS and HPLC analysis. It counts as physicochemical.
A further data set is filed under the species Homo sapiens. The experiment in a line: Binding affinity to recombinant AhR/ARNT (unknown origin) assessed as binding constant incubated for 30 mins by fluorescence quenching analysis. The note with it: filed as antagonist.
The target in data set [16] is T1, Aryl hydrocarbon receptor (Mus musculus, UniProt P30561).
T1 sequence (P30561 whole entry): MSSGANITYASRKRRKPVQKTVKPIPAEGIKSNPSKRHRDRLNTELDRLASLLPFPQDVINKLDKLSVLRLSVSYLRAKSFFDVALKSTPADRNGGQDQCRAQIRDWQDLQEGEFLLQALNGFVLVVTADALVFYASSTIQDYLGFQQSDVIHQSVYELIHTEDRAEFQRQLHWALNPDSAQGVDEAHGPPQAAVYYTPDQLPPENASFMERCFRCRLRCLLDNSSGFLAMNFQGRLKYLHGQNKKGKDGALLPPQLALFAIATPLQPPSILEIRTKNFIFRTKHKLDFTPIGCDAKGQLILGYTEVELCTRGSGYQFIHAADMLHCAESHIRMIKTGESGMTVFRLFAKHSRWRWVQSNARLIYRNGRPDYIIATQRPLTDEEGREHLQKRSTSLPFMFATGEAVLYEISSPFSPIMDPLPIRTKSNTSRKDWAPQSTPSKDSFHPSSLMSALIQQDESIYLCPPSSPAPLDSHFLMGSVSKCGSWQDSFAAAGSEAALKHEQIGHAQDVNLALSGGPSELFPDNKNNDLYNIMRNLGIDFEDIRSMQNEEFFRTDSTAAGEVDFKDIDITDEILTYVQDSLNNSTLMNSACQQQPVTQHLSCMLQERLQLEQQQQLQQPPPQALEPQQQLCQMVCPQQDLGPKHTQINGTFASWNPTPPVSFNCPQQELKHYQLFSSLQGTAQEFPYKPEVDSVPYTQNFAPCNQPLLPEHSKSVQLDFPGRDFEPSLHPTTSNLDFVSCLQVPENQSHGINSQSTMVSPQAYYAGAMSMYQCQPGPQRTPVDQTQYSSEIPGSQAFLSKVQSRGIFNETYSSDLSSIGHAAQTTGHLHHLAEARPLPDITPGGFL
The experiment in a line: Induction of AhR nuclear translocation in mouse C2C12 cells at 800 nM measured after 2 hrs by Hoechst 33258 staining based fluorescence microscopy analysis. The data set is classed as cell-based. The note with it: c2c12, 2 h, 0.8 µM.

The target in data set [17] is T1, Aryl hydrocarbon receptor. Kind of data set: Antagonist activity at AhR in mouse C2C12 cells assessed as reduction in ITE induced AhR nuclear translocation at 800 nM measured after 2 hrs by Hoechst 33258 staining based fluorescence microscopy analysis. It counts as cell-based. The note with it: c2c12, 2 h, 0.8 µM.
The target in data set [18] is T1, Aryl hydrocarbon receptor. Kind of data set: Antagonist activity at AhR in mouse C2C12 cells assessed as reversal of TCDD inhibited myogenesis by measuring fold change at 800 nM measured after 7 days by Hoechst 33258 staining based fluorescence microscopy analysis. It counts as cell-based. Conditions: c2c12, 168 h, 0.8 µM, time 7 day.
A short description of data set [19]: Upregulation of utrophin expression in mouse C2C12 cells assessed as fold increase at 3 uM measured after 72 hrs by In-cell ELISA method. The data set is classed as functional.
A short description of data set [20]: Upregulation of utrophin protein expression in human patient derived KM1328 cells assessed as fold increase at 3 uM measured after 72 hrs by […]. The data set is classed as functional.
For data set [21], the target named is T1, Aryl hydrocarbon receptor. The experiment in a line: Antagonist activity at AhR in mouse C2C12 cells assessed as reduction in ITE induced AhR nuclear translocation measured after 2 hrs by Hoechst 33258 staining based fluorescence microscopy analysis. It counts as cell-based. Conditions: c2c12, 2 h.

One may read the Kd as the equilibrium constant for the complex coming apart. In general, kinetic solubility refers to solubility judged after dilution from a stock solution rather than from solid. As a reminder, the logD is the decadic logarithm of the distribution of all forms, ionised or not, between an organic phase and buffer at a given pH. Low readings indicate a more hydrophilic compound, high ones a more lipophilic compound.

For the molecule `CS(=O)(=O)c1ccc2nc(NCc3ccc(F)cc3)ncc2c1`, the Activity result with C2C12 [1] is “Toxic”; in the data set with C2C12 [4], “Dose-Dependent Effect”; with C2C12 [5] it was “Dose-Dependent Effect”; in [16], “Not Active”; in data set [17] it was “Active”. The “fold change (FC)” value is 2.14 in data set [2]; 2.72 in data set [6]; 2.11 in [7]; 2.3 in data set [8]; 2 in data set [18]. Moreover, the result with C2C12 [3] was Active. Besides, the dissociation constant (Kd) in data set [9] is 41.7 nM. Further, the kinetic solubility at 2 h in [10] is 30 µM (≈ 9.94 µg/mL). For the same molecule, the microsomal CLint at 5 µM in data set [11] amounted to 6.66 µL/min/mg. Further, the results for the remaining at 2 h, 50 µM in data set [12] and in data set [13] were 69.2% and 70%, respectively. The molecule further had a logD in data set [14] of 0.2. In data set [15], this molecule had a logD at 1 h of 2.46. Also, the Ka in the data set filed under Homo sapiens is 24 µM⁻¹.

On to `CS(=O)(=O)c1ccc2nc(NCc3ccncc3)ncc2c1`, for which, in the data set with C2C12 [1], the Activity result is “Toxic”. Moreover, the “fold change (FC)” value in [2] stood at 1.88. For the same molecule, the result in the data set on C2C12 [3] was Active.

Take `CCS(=O)(=O)c1ccc2nc(NCc3ccc(C(F)(F)F)cc3)ncc2c1`: the Activity result in the data set on C2C12 [1] is “Toxic”; in the data set on C2C12 [4] it was “Dose-Dependent Effect”; with C2C12 [5], “Dose-Dependent Effect”. Further, the entries for the “fold change (FC)” value in data set [2], in data set [6] and in data set [7] were 1.93, 2.51 and 1.95, respectively. Further, in the data set on C2C12 [3], the outcome was Active.

With `O=C(/C=C/C=C/c1ccc2c(c1)OCO2)N1CCCCC1` [PIPERINE], the entries for the “fold change (FC)” value in [19] and in data set [20] were 1.3 and 0.99, respectively. Further, the Activity entry in data set [21] was “Not Active”.

`CCS(=O)(=O)c1ccc2nc(Nc3ccc(C(F)(F)F)cc3)ncc2c1`: in the data set on C2C12 [1], the Activity entry is on record as “Toxic”. In data set [2], the “fold change (FC)” value was found to be 1.25.
